Test results from patent US11578078B2, “Heterocyclic RIP1 inhibitory compounds” (Rigel Pharmaceuticals, Inc., priority 2019, dated 2023).

Test: in vivo pharmacokinetics, plasma and brain exposure
Set-up: species or system rodents

Compound	Ratio (Brain/Plasma) (brain AUC0-6 / plasma AUC0-6)	PLASMA CI	BRAIN AUC0-6 (brain)	Kp (rodents, brain AUC0-6 / plasma AUC0-6, read-out: Ratio (Brain/Plasma))
CN1C(=O)[C@@H](NC(=O)n2cc(Cc3ccc(F)cc3)cn2)COc2ccc(N3CC4(CCOCC4)C3)cc21 [Compound I-3, (S)-4-(4-fluorobenzyl)-N-(5-methyl-4-oxo-7-(7-oxa-2-azaspiro[3.5]nonan-2-yl)-2,3,4,5-tetrahydrobenzo[b][1,4]oxazepin-3-yl)-1H-pyrazole-1-carboxamide]	0.93	19.0		
CN1C(=O)[C@@H](NC(=O)c2nn(Cc3ccccc3)cc2F)COc2ccc(N3CCC4(CCOCC4)C3)cc21 [Compound I-1, (S)-1-benzyl-4-fluoro-N-(5-methyl-4-oxo-7-(8-oxa-2-azaspiro[4.5]decan-2-yl)-2,3,4,5-tetrahydrobenzo[b][1,4]oxazepin-3-yl)-1H-pyrazole-3-carboxamide]	0.46	16.4		
CN1C(=O)[C@@H](NC(=O)c2nn(Cc3ccccc3)cc2F)COc2ccc(N3CC4(CCOCC4)C3)cc21 [Compound I-2, (S)-1-benzyl-4-fluoro-N-(5-methyl-4-oxo-7-(7-oxa-2-azaspiro[3.5]nonan-2-yl)-2,3,4,5-tetrahydrobenzo[b][1,4]oxazepin-3-yl)-1H-pyrazole-3-carboxamide]		57.7	157	0.56
